This is an account of results in patent publication US5380834A, “Immuno-suppressive agent” (Ishihara Sangyo Kaisha Ltd., priority 1992, dated 1995).

≈ marks a conversion by molar mass, not a printed value.

Experiment [1] deals with IgE antibody production from murine spleen B cells. The experiment is described as follows: Effects on the IgE antibody production from murine spleen cells (LPS + IL4). The format is cell-based, BALB/c mouse. The note with it: Mus musculus, B-cell, 168 h; spleen B cells, LPS 10 μg/ml, IL4 100 U/ml, 7 days, enzyme-immunoassay; read-out: IC50 value, IgE antibody production.
In another experiment the test system is murine thymocytes. Description: Effects on the mitogenic response by murine thymocytes (Con A stimulation, 3H-TdR uptake). The note with it: Mus musculus, Thymocyte; BALB/c thymocytes, Con A 5 μg/ml, 48 hours, 3H-TdR uptake; read-out: IC50 value, a (mitogenic response of murine thymocytes). The format is cell-based, BALB/c murine.
In a further experiment the test system is murine bone mallow cells. Description: Effects on the murine bone mallow cells (proliferation, 3H-TdR uptake). The experiment is classed as cell-based, BALB/c mouse. The conditions noted are these: Mus musculus, bone marrow cells; 20% L929 culture supernatant, 48 hours, 3H-TdR uptake; Tables 12-15; read-out: IC50 value, c (murine bone mallow cells).

By IC50 is commonly meant the point on the concentration scale where inhibition reaches its midpoint. Take `O[C@H]1C=C[C@H]2CO[C@@H]1O2` [Compound 1, 1,6-anhydro-3,4-dideoxy-β-D-threo-hex-3-enopyranose]: the IC50 in experiment [1] was 32 µg/mL; with murine thymocytes, 15 µg/mL (≈ 117 µM); in the experiment on murine bone mallow cells it was 69 µg/mL (≈ 539 µM).
In the same order, the values of `O=C(O[C@H]1C=C[C@H]2CO[C@@H]1O2)c1ccco1` [Compound 17, 1,6-anhydro-3,4-dideoxy-2-O-(2-furancarbonyl)-β-D-threo-hex-3-enopyranose] are 3.2 µg/mL, 190 µg/mL (≈ 855 µM) and 510 µg/mL (≈ 2300 µM).
For `C#C[C@]1(O)C=C[C@H]2CO[C@@H]1O2` [Compound 29], the IC50 in experiment [1] is 320 µg/mL; in the experiment on murine thymocytes it was 35 µg/mL (≈ 230 µM); in the experiment with murine bone mallow cells, greater than 1000 µg/mL.
